Earlier results on two substances are cited in patent publication US9149490B2, “Acne treatment composition and methods for using” (Skinvisible Pharmaceuticals, Inc., priority 2006, dated 2015).

The conditions of the series: in vivo.

On to “Poly(vinylpyrrolidone/1-hexadecene) [PVPH]”, for which the dermal toxicity result was “no demonstrable dermal toxicity”. “Poly(vinylpyrrolidone/1-eicosene) [PVPE]”: the dermal toxicity entry is recorded as “no demonstrable dermal toxicity”.
